From article PMC2074469

Key:
[1] = cited from earlier work
aromatase [2] = biological target: T1, aromatase (Homo sapiens, UniProt P11511); conditions: cited from earlier work
T1 construct: from tissue; host or cells: peripheral tissues of healthy post-menopausal female volunteers (in vivo; serum oestrogens measured)
T1 sequence (P11511 1-503): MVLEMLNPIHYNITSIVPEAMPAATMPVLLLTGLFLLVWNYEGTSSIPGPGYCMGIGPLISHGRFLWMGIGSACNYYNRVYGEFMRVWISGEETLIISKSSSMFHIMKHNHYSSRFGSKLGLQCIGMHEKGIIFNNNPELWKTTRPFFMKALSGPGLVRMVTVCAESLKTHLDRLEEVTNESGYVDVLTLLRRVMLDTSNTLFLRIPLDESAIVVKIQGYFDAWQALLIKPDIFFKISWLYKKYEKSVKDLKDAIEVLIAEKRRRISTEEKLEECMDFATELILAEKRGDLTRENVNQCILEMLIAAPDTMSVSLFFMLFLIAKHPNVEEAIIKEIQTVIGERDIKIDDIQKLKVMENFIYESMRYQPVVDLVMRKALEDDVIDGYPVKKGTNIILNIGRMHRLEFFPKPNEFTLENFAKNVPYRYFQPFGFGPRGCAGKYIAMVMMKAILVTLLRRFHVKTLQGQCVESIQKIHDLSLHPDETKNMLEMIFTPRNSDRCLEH

aromatase [3] = biological target: T1, aromatase; test: Serum oestradiol suppression in healthy post-menopausal female volunteers (trials 1 and 2); type: in vivo; conditions: for women with serum oestradiol below the limit of detection of the assay: limit of detection 3 pmol l-1; for mean BS oestradiol concentration 24 h after dosing on days 13 and 14, adjusted geometric mean / BS oestradiol AUC days 1-14, adjusted geometric mean: baseline-scaled; for BS oestradiol AUC days 1-14, adjusted geometric mean: normalised by time; for mean post-dose scaled oestradiol suppression compared with baseline: mean of 24 h after doses on days 13 and 14
Method: (§1) Summary Two multiple-dose studies were conducted in healthy post-menopausal female volunteers to investigate the pharmacokinetics and effects on endocrinology of Arimidex (ZD1033). Volunteers in the first trial were dosed with 3 mg of ZD1033 daily over 10 days to assess the effects on endocrinology of ZD1033 and establish the pharmacokinetic profile. In the second trial volunteers received 14 daily doses of either 0.5 or 1.0 mg of ZD1033 to assess the pharmacokinetics of ZD1033 and the effects of low doses of ZD1033 on serum oestradiol concentrations. […] Keywords: Arimidex; aromatase inhibitor; oestrogen Breast cancer is the most common type of cancer in women, accounting for 10% of all female cancers. […] ZD1033 is an achiral benzyltriazole derivative, 2,2[5-(1 H- 12,4-triazol- I -ylmethyl)- 1,3-phenylene] bis (2- methyl-propriononitrile) (Figure 1). […] ZD1033 is currently being evaluated in identical phase III efficacy and tolerability studies vs megestrol acetate in post- menopausal women with advanced breast cancer in the USA and Europe. This paper describes two studies that investigated the pharmacokinetic profile, selectivity, tolerability and efficacy in oestradiol suppression of multiple doses of ZD1033. The objective of the studies was to determine the minimum dose required for maximal suppression of circulating oestradiol, while retaining selectivity for the aromatase enzyme. […] Methods The two trials were randomised, double-blind, placebo- controlled multiple-dose studies in healthy post-menopausal female volunteers aged between 45 and 62 years (inclusive). Both trials had the same entry criteria and were of similar design. In the first study (trial 1), a total of eight volunteers were given eight doses of 3 mg of ZD1033 over 10 days to assess tolerability, pharmacokinetics and effects on endocrinology. In the second study (trial 2) a total of 14 volunteers were given 0.5 and 1 mg doses of ZD1033 daily for 14 days to assess the tolerability, pharmacokinetics and effect on serum oestradiol concentrations only. […] The key inclusion criteria were: at least one intact ovary; cervical smear negative for malignancy within the previous 12 months; normal clinical laboratory parameters and; normal clinical examination. Key exclusion criteria were a history of malignant breast disease or previous hysterectomy as a result of malignancy. […] A dose of 3 mg ZD1033 or matching placebo was then given on the following 7 consecutive days (study days 4-10). […] Samples for assay of serum aldosterone, cortisol, 17- hydroxyprogesterone (17-HP), dehydroepiandrosterone sul- phate (DHEA-S), luteinising hormone (LH), FSH and adrenocorticotrophic hormone (ACTH) were collected before and 3 h after dosing on study days 1 and 10 of both treatment periods. Additional samples for cortisol assay were also collected before dosing on study days 3, 5, 7 and 9 in both treatment periods. An ACTH stimulation test was performed 3 h after the dose on study day 10.

clinical = conditions: female, human, plasma, oral; for half-life: mean half-life
aromatase [4] = biological target: T1, aromatase; test: Serum oestrone suppression, trial 1 (3 mg of ZD1033 vs placebo); type: in vivo
Method: as §1

[5] = human, in vivo
Method: (§2) Summary Two multiple-dose studies were conducted in healthy post-menopausal female volunteers to investigate the pharmacokinetics and effects on endocrinology of Arimidex (ZD1033). Volunteers in the first trial were dosed with 3 mg of ZD1033 daily over 10 days to assess the effects on endocrinology of ZD1033 and establish the pharmacokinetic profile. In the second trial volunteers received 14 daily doses of either 0.5 or 1.0 mg of ZD1033 to assess the pharmacokinetics of ZD1033 and the effects of low doses of ZD1033 on serum oestradiol concentrations. […] Keywords: Arimidex; aromatase inhibitor; oestrogen Breast cancer is the most common type of cancer in women, accounting for 10% of all female cancers. […] ZD1033 is an achiral benzyltriazole derivative, 2,2[5-(1 H- 12,4-triazol- I -ylmethyl)- 1,3-phenylene] bis (2- methyl-propriononitrile) (Figure 1). […] ZD1033 is currently being evaluated in identical phase III efficacy and tolerability studies vs megestrol acetate in post- menopausal women with advanced breast cancer in the USA and Europe. This paper describes two studies that investigated the pharmacokinetic profile, selectivity, tolerability and efficacy in oestradiol suppression of multiple doses of ZD1033. The objective of the studies was to determine the minimum dose required for maximal suppression of circulating oestradiol, while retaining selectivity for the aromatase enzyme. […]

gonadotrophin release = test: Serum pituitary hormones, trial 1 (ACTH, LH, FSH); type: in vivo, human; conditions: for scaled FSH: percentage change of scaled geometric mean relative to placebo / scaled LH: percentage change of scaled geometric mean relative to placebo: 3 mg
Method: as §1

adrenal steroidogenesis = test: Serum adrenal steroid concentrations, trial 1 (cortisol, aldosterone, 17-HP, androstenedione, DHEA-S); type: in vivo, human
Method: as §1

[6] = system: steroid response to ACTH challenge; test: ACTH stimulation test (synacthen), trial 1 study day 10; type: in vivo, human; conditions: 3 mg, 30 and 60 min after ACTH
Method: as §2

[7] = system: adrenal gland steroidogenesis; conditions: cited from earlier work
[8] = 3 mg vs placebo, not statistically significant

C[C@]12CCC(=O)C(O)=C1CC[C@@H]1[C@@H]2CC[C@]2(C)C(=O)CC[C@@H]12 [formestane]
adverse reactions ([1]; 250 mg i.m. once every 2 weeks, ref Hoffken et al., 1993): injection site reactions | oestradiol suppression (aromatase [2]; in vivo): 49- 64%

CC(C)(C#N)c1cc(Cn2cncn2)cc(C(C)(C)C#N)c1 [ZD1033, 2,2[5-(1 H-12,4-triazol-I -ylmethyl)-1,3-phenylene] bis (2-methyl-propriononitrile)]
reduction in serum oestradiol levels (to the limit of detection of the available assay) (aromatase [3]; 1 mg daily p.o.): > 80% | reduction in concentration of serum oestradiol of baseline following multiple dosing (aromatase [3]; all three doses (0.5, 1.0, 3 mg daily)): approximately 80% | minimal dose required for maximal suppression of oestradiol (aromatase [3]; from number of volunteers below assay limit of detection 24 h after last dose): 1.0 mg | decrease of oestradiol concentration compared with placebo values (aromatase [3]; trial 1, 3 mg daily days 4-10, by day 8, P = 0.004): approximately 80% | oestradiol suppression compared with placebo values (aromatase [3]; trial 1, 3 mg, 24 h after the last dose): 70% | reduction of mean serum oestradiol concentration compared with placebo (aromatase [3]; trial 1, 3 mg, by 48 h after the first dose, P = 0.001): approximately 70% | recovery of serum oestradiol after first dose (aromatase [3]; trial 1, single 3 mg dose, up to 72 h): no recovery apparent by 72 h | reduction of mean scaled oestradiol AUC 24 h after dosing on days 1-14 (aromatase [3]; trial 2, 0.5 mg daily): 82% | women with serum oestradiol below the limit of detection of the assay (aromatase [3]; trial 2, 0.5 mg daily, 24 h after the last dose): one out of six | mean post last dose oestradiol concentration (aromatase [3]; trial 2, 0.5 mg daily, baseline mean 46 pmol l-1): 5.9 pmol/L | mean BS oestradiol concentration 24 h after dosing on days 13 and 14, adjusted geometric mean (aromatase [3]; trial 2, 0.5 mg daily): 0.156 | BS oestradiol AUC days 1-14, adjusted geometric mean (aromatase [3]; trial 2, 0.5 mg daily): 0.175 | mean post-dose scaled oestradiol suppression compared with baseline (aromatase [3]; trial 2, 0.5 mg daily): 84% | reduction of mean scaled oestradiol AUC 24 h after dosing on days 1-14 (aromatase [3]; trial 2, 1.0 mg daily): 84% | women with serum oestradiol below the limit of detection of the assay (aromatase [3]; trial 2, 1 mg daily, 24 h after the last dose): five out of seven | mean post last dose oestradiol concentration (aromatase [3]; trial 2, 1.0 mg daily, baseline mean 28 pmol l-1): 3.2 pmol/L | mean BS oestradiol concentration 24 h after dosing on days 13 and 14, adjusted geometric mean (aromatase [3]; trial 2, 1.0 mg daily): 0.138 | BS oestradiol AUC days 1-14, adjusted geometric mean (aromatase [3]; trial 2, 1.0 mg daily): 0.160 | mean post-dose scaled oestradiol suppression compared with baseline (aromatase [3]; trial 2, 1.0 mg daily): 86% | duration of suppression of mean oestradiol concentrations (aromatase [3]; trial 2, 0.5 and 1 mg daily for 14 days): remained suppressed from 3 h after the first dose to 6 days after the last dose | treatment effect (ratio 0.5 - 1.0 mg), BS oestradiol AUC days 1-14 (aromatase [3]; trial 2, 95% confidence (0.52, 2.30), P 0.794): 1.09 | treatment effect (ratio 0.5 - 1.0 mg), mean BS oestradiol days 13 and 14 (aromatase [3]; trial 2, 95% confidence (0.55, 2.33), P 0.713): 1.13 | recovery in oestradiol after the last dose (aromatase [3]; up to 144 h after the last dose): no recovery | Cmax (clinical; 0.5 mg): 5.97 ng/mL | Tmax (clinical; 0.5 mg): 2 h | half-life (clinical; 0.5 mg): 45.7 h | Cmax (clinical; 1 mg): 13.7 ng/mL | Tmax (clinical; 1 mg): 2 h | half-life (clinical; 1 mg): 40.6 h | Tmax (clinical; 3 mg): 3 h | half-life (clinical; 3 mg, after the first dose of 3 mg): 50.7 h | half-life (clinical; 3 mg, after the last dose of 3 mg): 45.4 h | scaled oestrone: percentage reduction in geometric mean relative to placebo (aromatase [4]; 96 h after dose on day 10): 39.7% | scaled oestrone: percentage reduction in geometric mean relative to placebo (aromatase [4]; Day 2): 36.2% | scaled oestrone: percentage reduction in geometric mean relative to placebo (aromatase [4]; Day 3): 29.4% | scaled oestrone: percentage reduction in geometric mean relative to placebo (aromatase [4]; Day 4): 34.6% | scaled oestrone: percentage reduction in geometric mean relative to placebo (aromatase [4]; Day 6): 41.1% | scaled oestrone: percentage reduction in geometric mean relative to placebo (aromatase [4]; Day 8): 34.8% | scaled oestrone: percentage reduction in geometric mean relative to placebo (aromatase [4]; Day 10): 44.9% | maximal suppression of mean serum oestrone compared with placebo values (aromatase [4]; from study day 6 onwards): approximately 40% | recovery of serum oestrone after the last dose (aromatase [4]; up to 96 h after the last dose): no recovery apparent by 96 h after the last dose | changes in blood pressure, pulse rate or ECG [5]: no evidence of changes | effect on ACTH, LH or FSH (gonadotrophin release; 3 mg vs placebo): None of the data suggested an effect | scaled FSH: percentage change of scaled geometric mean relative to placebo (gonadotrophin release; Day 1, 3 h after dose): 0.01% | scaled LH: percentage change of scaled geometric mean relative to placebo (gonadotrophin release; Day 1, 3 h after dose): -9.5% | scaled FSH: percentage change of scaled geometric mean relative to placebo (gonadotrophin release; Day 10, 3 h after dose): -3.4% | scaled LH: percentage change of scaled geometric mean relative to placebo (gonadotrophin release; Day 10, 3 h after dose): 12.2% | scaled FSH: percentage change of scaled geometric mean relative to placebo (gonadotrophin release; Day 10, pre-dose): 1.54% | scaled LH: percentage change of scaled geometric mean relative to placebo (gonadotrophin release; Day 10, pre-dose): -9.3% | alteration in mean serum concentration of DHEA-S relative to placebo (adrenal steroidogenesis; 3 mg): No clinically significant alterations | change in mean serum concentration of cortisol (adrenal steroidogenesis; 3 mg vs placebo): No statistically significant changes | change in mean serum concentration of 17-HP (adrenal steroidogenesis; [8]): no consistent changes | change in mean serum concentration of aldosterone (adrenal steroidogenesis; [8]): no consistent changes | change in mean serum concentration of androstenedione (adrenal steroidogenesis; [8]): no consistent changes | scaled 17-HP: percentage change of scaled geometric mean relative to placebo (adrenal steroidogenesis; 3 mg, Day 1, 3 h after dose): -26.9% | scaled aldosterone: percentage change of scaled geometric mean relative to placebo (adrenal steroidogenesis; 3 mg, Day 1, 3 h after dose): -12.9% | scaled 17-HP: percentage change of scaled geometric mean relative to placebo (adrenal steroidogenesis; 3 mg, Day 10, 3 h after dose): 48.9% | scaled aldosterone: percentage change of scaled geometric mean relative to placebo (adrenal steroidogenesis; 3 mg, Day 10, 3 h after dose): 21.0% | scaled 17-HP: percentage change of scaled geometric mean relative to placebo (adrenal steroidogenesis; 3 mg, Day 10, pre-dose): 3.8% | scaled aldosterone: percentage change of scaled geometric mean relative to placebo (adrenal steroidogenesis; 3 mg, Day 10, pre-dose): 24.6% | difference of 17-HP after ACTH stimulation from values obtained on placebo [6]: up to 12% | difference of cortisol after ACTH stimulation from values obtained on placebo [6]: up to 12%

CCC1(c2ccc(N)cc2)CCC(=O)NC1=O (centres unmarked) [aminoglutethimide]
toxicity ([1]; ref Lonning and Johannessen, 1991): marked toxicity | selectivity for the aromatase enzyme ([7]; 250 mg q.i.d., also inhibits adrenal gland steroidogenesis, ref Lonning and Johannessen, 1991): non-selective

N#Cc1ccc(C(c2ccc(C#N)cc2)n2cncn2)cc1 [letrozole]
selectivity: interference with adrenal steroidogenesis ([7]; in vivo): no reports of letrozole interfering | reduction in oestradiol levels (aromatase [2]; ref Iveson et al., 1993): up to 86%
